Measured values from publication PMC11243693, “Synthesis and Biological Evaluation of New Compounds with Nitroimidazole Moiety” (Molecules, 2024).
≈ marks a conversion by molar mass, not a printed value.

Assays:
PC3 cells = test: MTT assay, PC3 cells; format: cell-based, human; conditions: for IC50: PC-3, PC3 human metastatic prostate cancer, MTT, 24 h, mean SD; for SI (Selectivity Index): IC50 for normal cell line (HaCaT)/IC50 PC3
Description: (§1) Colon cancer (SW480), breast adenocarcinoma (MDA-MB-231), lung carcinoma (A-549), prostate cancer (PC3), and immortal keratinocyte (HaCaT) cell lines of human origin were acquired from the American Type Culture Collection (ATCC). The recommended culture media and protocols provided by ATCC were as follows: SW480 were cultured in Minimum Essential Medium (MEM), MDA-MB-231, A-549, and HaCaT cells were cultured in Dulbecco’s Modified Eagle Medium (DMEM), while PC3 was cultured in Roswell Park Memorial Institute Medium (RPMI). The culture media were supplemented with 10% fetal bovine serum (FBS), penicillin (100 U/mL), and streptomycin (100 μg/mL). Cells were maintained in a humidified incubator at 37 °C with 5% CO2. Passaging was carried out upon reaching 80–90% confluence using 0.25% trypsin (Gibco Life Technologies, New York, NY, USA) treatment prior to experimentation.
(§2) Cell viability was assessed utilizing the MTT assay, which relies on the conversion of 3-(4,5-dimethylthiazol-2-yl)-2,5-diphenyltetrazolium bromide salt (MTT) to formazan crystals by mitochondrial dehydrogenases in viable cells. Initially, cells were plated in 96-well plates at a density of 1 × 10^4 cells per well and allowed to attach for 24 h at 37 °C in a CO2 incubator. Subsequently, the culture medium was replaced with fresh medium containing various concentrations of the test compounds (ranging from 1 to 100 μM), and cells were further cultured for 24 h at 37 °C in a CO2 incubator. Control wells were left untreated for comparison. After the incubation period, MTT solution (0.5 mg/mL in serum-free medium) was added to each well, followed by a 4-h incubation at 37 °C in a CO2 incubator. The medium was then aspirated, and the formazan crystals were dissolved by adding a mixture of isopropanol and DMSO (1:1). The absorbance of the resulting solution was measured at 570 nm using a UVM 340 reader (ASYS Hitech GmbH, Seekirchen am Wallersee, Austria). IC50 values were determined using GraphPad software (GraphPad Prism 8 Software).

A-549 cells = test: MTT assay, A-549 cells; format: cell-based, human; conditions: for IC50: A-549 human lung carcinoma, MTT, 24 h, mean SD; for SI (Selectivity Index): IC50 for normal cell line (HaCaT)/IC50 A-549
Description: as §1, §2

MDA-MB-231 cells = test: MTT assay, MDA-MB-231 cells; format: cell-based, human; conditions: for SI (Selectivity Index): IC50 for normal cell line (HaCaT)/IC50 MDA-MB-231; for IC50: MDA-MB-231 human breast adenocarcinoma, MTT, 24 h, mean SD
Description: as §1, §2

SW620 cells = test: MTT assay, SW620 cells; format: cell-based, human; conditions: for IC50: SW620 human metastatic colon cancer, MTT, 24 h, mean SD; for SI (Selectivity Index): IC50 for normal cell line (HaCaT)/IC50 SW620
HaCaT cells = test: MTT assay, HaCaT normal cells; format: cell-based; conditions: HaCaT human immortal keratinocyte (normal cells), 24 h, mean SD
Description: as §1, §2

[1] = system: Candida parapsilosis ATCC 22019; test: Broth microdilution, C. parapsilosis ATCC 22019; format: cell-based; conditions: Cp 22019
Procedure, shortened: (§3)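 Compounds are diluted twofold, starting at 1000 µg/mL, in Mueller-Hinton medium, supplemented with 2% glucose for the yeast strains. Wells then receive a tenfold-diluted 0.5 McFarland inoculum and incubate 18 ± 2 h at 35 ± 2 °C. Absorbance at 570 nm gives the MIC.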

[2] = system: Candida glabrata ATCC 90030; test: Broth microdilution, C. glabrata ATCC 90030; format: cell-based; conditions: Cg 90030
Procedure, shortened: as §3

Candida spp. = test: Broth microdilution, Candida spp.; format: cell-based; conditions: range over both strains and the listed compounds
Description: The antibacterial activity of the obtained thiosemicarbazides and hydrazide–hydrazones was determined by evaluating their ability to inhibit microbial growth in vitro using the broth microdilution method, according to the guidelines of the European Committee on Antimicrobial Susceptibility Testing (EUCAST). The method involved the preparation of microbial suspensions with a standardized density of 0.5 on the McFarland scale (equivalent to 1.5 × 10^8 colony-forming units/mL for bacteria and […] for fungi). A solution of the test substances was then prepared (initial concentration 1000 µg/mL, diluted in sterile Mueller-Hinton broth for bacteria or Mueller-Hinton with 2% glucose for fungi). The test was carried out in 96-well polystyrene flat-bottom plates (Medlab, Poland) with 100 µL of appropriate sterile microbiological medium in each well. The first wells were filled with 200 µL of the test substance, diluted to the initial concentration, and then double-decreasing dilutions were made under aseptic conditions using an automatic pipette. The final step was the addition of a 10-fold diluted microbial suspension of 2 µL. At the same time, the following controls were included: (a) medium control (100 µL of sterile medium without microorganisms added), (b) microbial viability control, (c) test substance control (dilutions without added micro-organisms), (d) positive control of the drug used in the clinic. The plates thus prepared were incubated for 18 ± 2 h at 35 ± 2 °C under conditions optimal for the growth of the test microorganisms. After incubation, the spectrophotometric absorbance at 570 nm in each well of the plate was read. The aim of this part of the study was to determine two parameters: the minimum inhibitory concentration (MIC) and the minimum bactericidal or fungicidal concentration (MBC/MFC) of the test compound. […] The MBC value was determined by adding 5 µL of the contents of each well of the plate to solid sterile MHA or MHA + 2%glc medium for bacteria and fungi, respectively. The area on the plate where 99.9% inhibition of microbial growth was observed indicated the lethal concentration. In addition, the quotient MBC(MFC)/MIC could be determined to assess the nature of the activity of the test substance. If MBC(MFC)/MIC was <4, the test substance was bactericidal/fungicidal, whereas if MBC(MFC)/MIC was ≥4, it was bacteriostatic/fungistatic. Amoxicillin (Glentham Life Sciences, USA) and nystatin (Glentham Life Sciences, USA) were used as the controls for this assay.
The test was performed either on bacteria, comprising: Gram-positive (Staphylococcus aureus ATCC 25923, Staphylococcus aureus ATCC 6538, Staphylococcus aureus ATCC 43300 methicillin-resistant MRSA, Staphylococcus epidermidis ATCC 12228, Micrococcus luteus ATCC 10240, Bacillus subtilis ATCC 6633, Bacillus cereus ATCC 10876) and Gram-negative (Escherichia coli ATCC 25922, Pseudomonas aeruginosa ATCC 27853, Proteus mirabilis ATCC 12453, Klebsiella pneumoniae ATCC 13883) or yeast (Candida parapsilosis ATCC 22019, Candida glabrata ATCC 90030, Candida krusei ATCC 14243, Candida glabrata ATCC 15126, Candida tropicalis ATCC 1369, Candida auris CDC B11903, Candida lusitaniae ATCC 3449) reference strains from the American Type Culture Collection (ATCC) or the Centers for Disease Control and Prevention (CDC).

[3] = system: Candida lusitaniae ATCC 3449; test: Broth microdilution, C. lusitaniae ATCC 3449; format: cell-based; conditions: Cl 3449
Procedure, shortened: as §3

[4] = system: Staphylococcus aureus ATCC 25923; test: Broth microdilution, S. aureus ATCC 25923; format: cell-based; conditions: Sa 25923
Procedure, shortened: as §3

[5] = system: Bacillus subtilis ATCC 6633; test: Broth microdilution, B. subtilis ATCC 6633; format: cell-based; conditions: Bs 6633
Procedure, shortened: as §3

[6] = system: Candida glabrata ATCC 15126; test: Broth microdilution, C. glabrata ATCC 15126; format: cell-based; conditions: Cg 15126
Procedure, shortened: as §3

[7] = system: Staphylococcus epidermidis ATCC 12228; test: Broth microdilution, S. epidermidis ATCC 12228; format: cell-based; conditions: Se 12228
Procedure, shortened: as §3

[8] = system: Candida tropicalis ATCC 1369; test: Broth microdilution, C. tropicalis ATCC 1369; format: cell-based; conditions: Ct 1369
Procedure, shortened: as §3

[9] = system: Staphylococcus aureus ATCC 43300 methicillin-resistant MRSA; test: Broth microdilution, S. aureus ATCC 43300 MRSA; format: cell-based; conditions: Sa 43300 MRSA
Procedure, shortened: as §3

[10] = system: Micrococcus luteus ATCC 10240; test: Broth microdilution, M. luteus ATCC 10240; format: cell-based; conditions: Ml 10240
Procedure, shortened: as §3

[11] = system: Staphylococcus aureus ATCC 6538; test: Broth microdilution, S. aureus ATCC 6538; format: cell-based; conditions: Sa 6538
Procedure, shortened: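 MIC: A570 after 18 ± 2 h, 35 ± 2 °C. Medium: MH broth (bacterium) or MH + 2% glucose (yeasts). Serial 2-fold dilutions of compound, top solution 1000 µg/mL. Inoculum: 0.5 McFarland suspension diluted 10×. MBC/MFC: subculture onto MHA or MHA + 2% glc, 99.9% growth inhibition.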

[12] = system: Candida krusei ATCC 14243; test: Broth microdilution, C. krusei ATCC 14243; format: cell-based; conditions: Ck 14243
Procedure, shortened: as §3

[13] = system: Bacillus cereus ATCC 10876; test: Broth microdilution, B. cereus ATCC 10876; format: cell-based; conditions: Bc 10876
Procedure, shortened: as §3

Candida auris CDC B11903 = test: Broth microdilution, C. auris CDC B11903; format: cell-based; conditions: Ca B11903
Procedure, shortened: as §3

## COc1ccc(O)c(C=NNC(=O)c2nc([N+](=O)[O-])cn2C)c1 [Compound 31, N’-[(2-hydroxy-5-methoxyphenyl)methylidene]-1-methyl-4-nitro-1H-imidazole-2-carbohydrazide]
other
  melting point: 236 to 238 °C
PC3 cells
  IC50: 70.4 ± 2.76 µM
A-549 cells; A549
  IC50: > 100 µM
A-549 cells
  SI (Selectivity Index): 1
MDA-MB-231 cells
  SI (Selectivity Index): 1
  IC50: > 100 µM
SW620 cells; SW-620
  IC50: 86.3 ± 3.81 µM
HaCaT cells
  IC50: > 100 µM

## N.N.[Cl][Pt][Cl] [Cisplatin, cisplatin]
A-549 cells
  IC50: 3.2 ± 1.24 µM
MDA-MB-231 cells
  IC50: 7.8 ± 0.98 µM
SW620 cells
  IC50: 6.7 ± 1.1 µM
HaCaT cells
  IC50: 6.3 ± 0.7 µM

## COc1ccc(C=NNC(=O)c2nc([N+](=O)[O-])cn2C)c(O)c1 [Compound 30, N’-[(2-hydroxy-4-methoxyphenyl)methylidene]-1-methyl-4-nitro-1H-imidazole-2-carbohydrazide]
other
  melting point: 214 to 216 °C
PC3 cells
  SI (Selectivity Index): 1.4
  IC50: 70.2 ± 4.2 µM
A-549 cells; A549
  IC50: > 100 µM
MDA-MB-231 cells
  IC50: > 100 µM
SW620 cells
  SI (Selectivity Index): 1.5
SW620 cells; SW-620
  IC50: 64.2 ± 6.88 µM
HaCaT cells
  IC50: 97 ± 5.48 µM

## COc1ccccc1NC(=S)NNC(=O)c1nc([N+](=O)[O-])cn1C [Compound 9]
[1]
  MFC: 1000 mg/L (≈ 2850 µM)
  MIC: 500 mg/L (≈ 1430 µM)
[1]; <4 fungicidal, ≥4 fungistatic
  MFC/MIC Ratio: 2
[2]
  MIC: >1000 mg/L
Candida spp.
  MBC (range, C. parapsilosis ATCC 22019 and C. tropicalis ATCC 1369): 500 to 1000 mg/L
  MIC (range, C. parapsilosis ATCC 22019 and C. tropicalis ATCC 1369): 62.5 to 1000 mg/L
[3]
  MIC: >1000 mg/L
[4]
  MBC: >1000 mg/L
  MIC: 500 mg/L (≈ 1430 µM)
[5]
  MBC: 500 mg/L (≈ 1430 µM)
  MIC: 500 mg/L (≈ 1430 µM)
[5]; <4 bactericidal, ≥4 bacteriostatic
  MBC/MIC Ratio: 1
[6]
  MIC: >1000 mg/L
[7]
  MBC: >1000 mg/L
  MIC: 500 mg/L (≈ 1430 µM)
[8]
  MFC: 1000 mg/L (≈ 2850 µM)
  MIC: 500 mg/L (≈ 1430 µM)
[8]; <4 fungicidal, ≥4 fungistatic
  MFC/MIC Ratio: 2
[9]
  MBC: >1000 mg/L
  MIC: 1000 mg/L (≈ 2850 µM)
[10]
  MBC: >1000 mg/L
  MIC: 500 mg/L (≈ 1430 µM)
[11]
  MBC: >1000 mg/L
  MIC: 1000 mg/L (≈ 2850 µM)
[12]
  MIC: >1000 mg/L
[13]
  MBC: >1000 mg/L
  MIC: 1000 mg/L (≈ 2850 µM)
Candida auris CDC B11903
  MIC: >1000 mg/L

## COc1cccc2c1C(=O)c1c(O)c3c(c(O)c1C2=O)C[C@@](O)(C(=O)CO)C[C@@H]3O[C@H]1C[C@H](N)[C@H](O)[C@H](C)O1 [Doxo-rubicin, doxorubicin]
PC3 cells
  SI (Selectivity Index): 1
  IC50: 0.3 ± 0.1 µM
A-549 cells; A549
  IC50: 0.2 ± 0.09 µM
A-549 cells
  SI (Selectivity Index): 1.5
MDA-MB-231 cells
  SI (Selectivity Index): 0.19
  IC50: 1.6 ± 0.23 µM
SW620 cells
  SI (Selectivity Index): 1.0
SW620 cells; SW-620
  IC50: 0.3 ± 0.1 µM
HaCaT cells
  IC50: 0.3 ± 0.1 µM
